Results from patent US20250268928A1, “USE OF BACTERIORUBERINS AND GLYCOSYL DERIVATIVES THEREOF TO PREVENT AND TREAT DISEASES INVOLVING DYSREGULATED PROTEIN AGGREGATION, SUCH AS NEURODEGENERATIVE DISEASES” (NAOS INSTITUTE OF LIFE SCIENCE, priority 2020, published 2025).

How the values were obtained:
[1] = tested on: tau protein; assay: Hyperphosphorylation of tau protein (AT100) in cortical neurons damaged by glutamate; assay type: cell-based, Murine; conditions: % of the negative control (100%=value 0); glutamate 20 μM, 20 min; 48 hours after; SBE 1 μm, BDNF 50 ng/mL; FIG. 5
Protocol: (§1) Murine cortical neurons were cultured as described by Callizot et al., 2013. The cells were mechanically dissociated by three forced passages through the tip of a 10 mL pipette. The cells were then centrifuged at 515×g for 10 minutes at 4° C. The supernatant was removed and the pellet was taken up in a defined culture medium constituted by Neurobasal medium with a 2% solution of B27 supplement, 2 mmol/litre of L-glutamine, 2% of PS solution and 10 ng/ml of BDNF. The viable cells were counted in a Neubauer cytometer, using the trypan blue exclusion test. The cells were seeded in a density of 25000 per well in a 96-well plate pre-coated with poly-L-lysine and were cultured at 37° C. in a CO2 incubator (5%). The medium was changed every two days. The experiments were subsequently carried out on 96-well plates (n=6 culture wells per condition). In the 96 wells of each plate, only 60 were used. The wells in the first and last rows and columns were not used in order to avoid any edge effects and were filled with sterile water.
(§2) The compounds to be tested were dissolved in DMSO and the concentration was adjusted in order to ensure a concentration of DMSO in the culture medium of 0.1%. […]
(§3) For each condition, 30 images per well were automatically recorded using ImageXpress (Molecular Devices) at 20× magnification. […]
(§4) The data were expressed as a percentage of the control. […]

[2] = tested on: Murine cortical neurons; assay: Neural network integrity of cortical neurons damaged by glutamate (MAP-2 immunolabeling); assay type: cell-based; conditions: 48 hours after, FIG. 4
Protocol: as §1, §2, §3, §4

[3] = target: T1, Bovine alkaline phosphatase (AP) (Bos taurus, UniProt P19111); assay: AP-heat test (protection of alkaline phosphatase against heat denaturing, chaperone effect); assay type: biochemical; conditions: 55° C. for 1 hour; all test concentrations (20 μM, 10 μM, 5 μM, 2.5 μM, 1.25 μM); FIG. 2
T1 construct: purchased Sigma P0114
T1 sequence (P19111 20-506 limits assumed): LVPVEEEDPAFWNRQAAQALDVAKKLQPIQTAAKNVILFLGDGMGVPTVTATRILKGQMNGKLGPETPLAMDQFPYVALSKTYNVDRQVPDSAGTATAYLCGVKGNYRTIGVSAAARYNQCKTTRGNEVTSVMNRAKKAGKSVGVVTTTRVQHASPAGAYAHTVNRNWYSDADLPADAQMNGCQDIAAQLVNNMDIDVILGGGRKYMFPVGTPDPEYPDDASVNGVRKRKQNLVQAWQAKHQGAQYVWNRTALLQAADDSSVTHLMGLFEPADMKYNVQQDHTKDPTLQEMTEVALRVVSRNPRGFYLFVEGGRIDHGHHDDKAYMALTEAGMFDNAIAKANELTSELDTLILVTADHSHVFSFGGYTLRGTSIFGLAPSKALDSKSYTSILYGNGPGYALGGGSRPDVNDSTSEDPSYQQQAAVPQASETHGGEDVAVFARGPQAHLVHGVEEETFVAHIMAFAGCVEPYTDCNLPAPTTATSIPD
From the text: The aim of this study was to compare the protein protection capacities of the various components of an extract of carotenoids of the actinobacterium A. agilis separated by chromatography and HPLC. More specifically, we tested all the major fractions to assess their ability to protect the enzyme alkaline phosphatase: • against denaturing via their effect of protecting proteins from denaturing (AP-heat test) (chaperone effect) • against oxidation (APox test) (Protective effect against oxidative stress).
This test is derived from a modification of the APox test for measuring the protection potential of proteins not just against oxidative stress, but against denaturing (heat stress). In fact, under the effect of heat, proteins are denatured and enzymes lose their activity. […]
• Bovine alkaline phosphatase (AP) (Sigma P0114) • Liquid substrate of alkaline phosphatase (Sigma P7998) • Heating block • Flat-bottomed 96-well plate • Plate reader at 405 nm […]
Read OD at 405 nm for 20 min at 37° C.
The protective power of a “molecule X” against denaturing (PPX) is calculated by taking the ratio of the activity of alkaline phosphatase (PA) at 55° C. […]
The activity of the enzyme for each condition is calculated by taking the mean of the optical density values measured at 405 nm for the replicates, from which values the mean value of what are known as the “blank” wells (reagents alone) is subtracted, i.e.: […]

[4] = target: T1, Bovine alkaline phosphatase (AP); assay: APox test (protection of alkaline phosphatase against oxidative stress); assay type: biochemical; conditions: hydrogen peroxide/FeO4S, 15 min at 37° C.; all test concentrations (20 μM to 1.25 μM); FIG. 3
From the text: The aim of this study was to compare the protein protection capacities of the various components of an extract of carotenoids of the actinobacterium A. agilis separated by chromatography and HPLC. More specifically, we tested all the major fractions to assess their ability to protect the enzyme alkaline phosphatase: • against denaturing via their effect of protecting proteins from denaturing (AP-heat test) (chaperone effect) • against oxidation (APox test) (Protective effect against oxidative stress). This test is described in patent application FR 3002544 A1 and measures the ability of a substance to protect the enzyme alkaline phosphatase from oxidative stress. • Bovine alkaline phosphatase (AP) (Sigma P0114) • Liquid substrate for AP (Sigma P7998) • 30% hydrogen peroxide • FeO4S solution (30 mg in 1 mL H2O) • Flat-bottomed 96-well plate • Plate reader at 405 nm The Following were Deposited in Each Well: • 10 μL of AP diluted to 10^−5 in 10^−2M MgSO4. • 4 μL of test molecule, solvent (negative control) or H2O (positive control)+6 μL of H2O • 30 μL of a hydrogen peroxide solution (from a stock solution composed of 940 μL H2O+40 μL 30% H2O2+20 μL 10^−2 FeO4S) or 30 μL of H2O (positive control) • Allow to incubate for 15 min at 37° C. • Add 50 μL of liquid substrate. • Read OD at 405 nm for 20 min at 37° C. […]

Row | Molecule | hyperphosphorylation of tau protein (AT100 zone, tau/MAP-2 overlap) [1] | reduction in neural network density ([2]; glutamate poisoning alone (20 μM, 20 min)/vehicle) | percentage protection against heat (AP-heat test) [3] | percentage of protection against oxidative stress (APOX test) [4] | total neural network (MAP-2 positive neural length) ([2]; percentage of control, glutamate 20 μM, 20 min, 1 hour pre-incubation, SBE 1 μm, BDNF 50 ng/mL)
1 | N[C@@H](CCC(=O)O)C(=O)O [Glutamate, reference compound] | +193% | 60% | – | – | –
2 | Monoglycosylated bacterioruberin [BR-MonoG] | – | – | protect the protein more effectively than the BR itself | – | –
3 | Diglycosylated bacterioruberin [BR-DiG] | – | – | protect the protein more effectively than the BR itself | particularly pronounced | –
4 | BDNF: neurotrophin used as a positive control (protein, UniProt P23560 19-247, looked up) Neurotrophic factor BDNF …: APMKEANIRGQGGLAYPGVRTHGTLESVNGPKAGSRGLTSLADTFEHVIEELLDEDQKVRPNEENNKDADLYTSRVMLSSQVPLEPPLLFLLEEYKNYLDAANMSMRVRRHSDPARRGELSVCDSISEWVTAADKKTAVDMSGGTVTVLEKVPVSKGQLKQYFYETKCNPMGYTKEGCRGIDKRHWNSQCRTTQSYVRALTMDSKKRIGWRFIRIDTSCVCTLTIKRGR | +121% | – | – | – | 85%
